Experimental data published in patent US20250344697A1, “ENANTIOMERICALLY ENRICHED […] THE CONTROL OF RESISTANT PHYTOPATHOGENIC FUNGI” (SYNGENTA CROP PROTECTION AG, priority 2022, published 2025).

What was measured:
Experiment in all cases: in vitro antifungal test, Z. tritici spore suspension in PDB
Assay type in all cases: cell-based
[1] = system: K5544 Zymoseptoria tritici (WT); conditions: isolate K5544 (WT); for M = (EC50 (enantiomer)/EC50 (racemate)) − 0.5: (−)-enantiomer vs racemate, below 0 = enantiomer outperforms racemate; for EC50 (ppm): growth at 3 days post exposure, average of two replicates
Experimental: (§1) A panel of 16 Zymoseptoria tritici isolates was subjected to in vitro antifungal tests. Spore suspensions of Z. tritici isolates were prepared in potato dextrose broth (PDB) and exposed to defined concentration ranges of the inhibitors (20ppm starting concentration, dilution steps of 3). A sensitive wild-type isolate was used together with a panel of strains containing variants of the Z. tritici CYP51 gene conferring resistance to DMI fungicides. The DMI-resistant isolates were isolated from wheat in the UK, Ireland, Germany and Russia in 2020. Determination of CYP51 gene variants was achieved using targeted gene sequencing. The half maximal effective concentration (EC50) of the inhibitors were calculated based on growth responses of Z. tritici at 3 days post exposure to the different concentrations of the […] using a linear regression. The Tables A and B show an average of EC50 values in ppm from two replicates, as well as M=(EC50 (enantiomer)/EC50 (racemate))−0.5.

[2] = system: K9020 Zymoseptoria tritici CYP51 L50S V136A I381V Y461S S524T; conditions: isolate K9020; for M = (EC50 (enantiomer)/EC50 (racemate)) − 0.5: (−)-enantiomer vs racemate, below 0 = enantiomer outperforms racemate; for EC50 (ppm): growth at 3 days post exposure, average of two replicates
Experimental: as §1

[3] = system: K9021 Zymoseptoria tritici CYP51 L50S V136A I381V Y461S S524T; conditions: isolate K9021; for M = (EC50 (enantiomer)/EC50 (racemate)) − 0.5: (−)-enantiomer vs racemate, below 0 = enantiomer outperforms racemate; for EC50 (ppm): growth at 3 days post exposure, average of two replicates
Experimental: as §1

[4] = system: K9022 Zymoseptoria tritici CYP51 L50S V136A I381V Y461S S524T; conditions: isolate K9022; for M = (EC50 (enantiomer)/EC50 (racemate)) − 0.5: (−)-enantiomer vs racemate, below 0 = enantiomer outperforms racemate; for EC50 (ppm): growth at 3 days post exposure, average of two replicates
Experimental: as §1

[5] = system: K9023 Zymoseptoria tritici CYP51 L50S V136C S188N A379G I381V YG459 S524T; conditions: for M = (EC50 (enantiomer)/EC50 (racemate)) − 0.5: (−)-enantiomer vs racemate; for EC50 (ppm): growth at 3 days post exposure, average of two replicates
Experimental: as §1

[6] = system: K9026 Zymoseptoria tritici CYP51 L50S S188N A379G I381V YG459 N513K; conditions: for M = (EC50 (enantiomer)/EC50 (racemate)) − 0.5: (−)-enantiomer vs racemate; for EC50 (ppm): growth at 3 days post exposure, average of two replicates
Experimental: as §1

[7] = system: K9029 Zymoseptoria tritici CYP51 L50S I381V YG459 N513K; conditions: for M = (EC50 (enantiomer)/EC50 (racemate)) − 0.5: (−)-enantiomer vs racemate; for EC50 (ppm): growth at 3 days post exposure, average of two replicates; for effectiveness compared with the racemate (in words): isolate K9029, summary of Tables A and B
Experimental: as §1

[8] = system: K9032 Zymoseptoria tritici CYP51 L50S D134G V136A I381V Y461H S524T; conditions: for M = (EC50 (enantiomer)/EC50 (racemate)) − 0.5: (−)-enantiomer vs racemate; for EC50 (ppm): growth at 3 days post exposure, average of two replicates
Experimental: as §1

Structure (SMILES)	M = (EC50 (enantiomer)/EC50 (racemate)) − 0.5 [1]	EC50 (ppm) [1] [ppm]	M = (EC50 (enantiomer)/EC50 (racemate)) − 0.5 [2]	EC50 (ppm) [2] [ppm]	M = (EC50 (enantiomer)/EC50 (racemate)) − 0.5 [3]	EC50 (ppm) [3] [ppm]	M = (EC50 (enantiomer)/EC50 (racemate)) − 0.5 [4]	EC50 (ppm) [4] [ppm]	EC50 (ppm) ([5]; isolate K9023, 2nd listed row)	EC50 (ppm) ([5]; isolate K9023, 3rd listed row)	EC50 (ppm) ([5]; isolate K9023)	EC50 (ppm) ([6]; isolate K9026, 1st listed row)	EC50 (ppm) ([6]; isolate K9026, 2nd listed row)	EC50 (ppm) ([6]; isolate K9026, 3rd listed row)	EC50 (ppm) ([7]; isolate K9029, 1st listed row)	EC50 (ppm) ([7]; isolate K9029, 2nd listed row)	EC50 (ppm) ([7]; isolate K9029, 3rd listed row)	EC50 (ppm) ([8]; isolate K9032, 1st listed row)	EC50 (ppm) ([8]; isolate K9032, 2nd listed row)	EC50 (ppm) ([8]; isolate K9032, 3rd listed row)	other results
COC(=O)C(O)(Cn1cncn1)c1ccc(Oc2ccc(Cl)cc2)cc1C(F)(F)F (single isomer, unassigned; (-)) [(−)-enantiomer of Compound I-2, (−)-Methyl 2-[4-(4-chlorophenoxy)-2-(trifluoromethyl)phenyl]-2-hydroxy-3-(1,2,4-triazol-1-yl)propanoate]	0.50	0.03	0.17	0.02	0.06	0.05	0.07	0.4	0.1	0.2	0.3	3	0.05	0.04	0.5	1	5	0.1	0.07	0.08	M = (EC50 (enantiomer)/EC50 (racemate)) − 0.5 ([5]; isolate K9023, 2nd listed row): 0.50; M = (EC50 (enantiomer)/EC50 (racemate)) − 0.5 ([5]; isolate K9023, 3rd listed row): 0.17; M = (EC50 (enantiomer)/EC50 (racemate)) − 0.5 ([5]; isolate K9023): 0.50; M = (EC50 (enantiomer)/EC50 (racemate)) − 0.5 ([6]; isolate K9026, 1st listed row): 0.00; M = (EC50 (enantiomer)/EC50 (racemate)) − 0.5 ([6]; isolate K9026, 2nd listed row): 0.21; M = (EC50 (enantiomer)/EC50 (racemate)) − 0.5 ([6]; isolate K9026, 3rd listed row): 0.07; M = (EC50 (enantiomer)/EC50 (racemate)) − 0.5 ([7]; isolate K9029, 1st listed row): 0.13; M = (EC50 (enantiomer)/EC50 (racemate)) − 0.5 ([7]; isolate K9029, 2nd listed row): −0.17; M = (EC50 (enantiomer)/EC50 (racemate)) − 0.5 ([7]; isolate K9029, 3rd listed row): 0.00; effectiveness compared with the racemate (in words) [7]: more effective; M = (EC50 (enantiomer)/EC50 (racemate)) − 0.5 ([8]; isolate K9032, 1st listed row): 0.00; M = (EC50 (enantiomer)/EC50 (racemate)) − 0.5 ([8]; isolate K9032, 2nd listed row): 0.20; M = (EC50 (enantiomer)/EC50 (racemate)) − 0.5 ([8]; isolate K9032, 3rd listed row): 0.30
COC(=O)C(O)(Cn1cncn1)c1ccc(Oc2ccc(Cl)cc2)cc1Cl (single isomer, unassigned; (-)) [(−)-enantiomer of Compound I-1, (−)-Methyl 2-[2-chloro-4-(4-chlorophenoxy)phenyl]-2-hydroxy-3-(1,2,4-triazol-1-yl)propanoate]	0.17	0.02	−0.17	0.01	−0.06	0.04	0.00	0.3	0.1	0.2	0.3	4	0.05	0.05	0.3	0.8	3	0.1	0.06	0.06	effectiveness compared with the racemate (in words) ([2]; summary of Tables A and B): more effective; M = (EC50 (enantiomer)/EC50 (racemate)) − 0.5 ([5]; isolate K9023, 2nd listed row): 0.00; M = (EC50 (enantiomer)/EC50 (racemate)) − 0.5 ([5]; isolate K9023, 3rd listed row): 0.00; M = (EC50 (enantiomer)/EC50 (racemate)) − 0.5 ([5]; isolate K9023): 0.10; M = (EC50 (enantiomer)/EC50 (racemate)) − 0.5 ([6]; isolate K9026, 1st listed row): −0.10; M = (EC50 (enantiomer)/EC50 (racemate)) − 0.5 ([6]; isolate K9026, 2nd listed row): 0.00; M = (EC50 (enantiomer)/EC50 (racemate)) − 0.5 ([6]; isolate K9026, 3rd listed row): 0.00; effectiveness compared with the racemate (in words) ([6]; isolate K9026, summary of Tables A and B): more effective; M = (EC50 (enantiomer)/EC50 (racemate)) − 0.5 ([7]; isolate K9029, 1st listed row): −0.13; M = (EC50 (enantiomer)/EC50 (racemate)) − 0.5 ([7]; isolate K9029, 2nd listed row): −0.23; M = (EC50 (enantiomer)/EC50 (racemate)) − 0.5 ([7]; isolate K9029, 3rd listed row): −0.20; effectiveness compared with the racemate (in words) [7]: more effective; M = (EC50 (enantiomer)/EC50 (racemate)) − 0.5 ([8]; isolate K9032, 1st listed row): 0.00; M = (EC50 (enantiomer)/EC50 (racemate)) − 0.5 ([8]; isolate K9032, 2nd listed row): 0.10; M = (EC50 (enantiomer)/EC50 (racemate)) − 0.5 ([8]; isolate K9032, 3rd listed row): 0.10
COC(=O)C(O)(Cn1cncn1)c1ccc(Oc2ccc(Cl)cc2)cc1C(F)(F)F (single isomer, unassigned; (+)) [(+)-enantiomer of Compound I-2]		0.5		1		3		>20	6	9	9	>20	3	2	>20	>20	>20	7	4	4	
